Test results: ChEMBL document CHEMBL4507261, “Data for DCP probe A-192621” (2021)

Columns and labels:
[1] = biological target: T1, Alpha-1B adrenergic receptor (Homo sapiens) (UniProt P35368); test: Alpha1B (h) Eurofins-Cerep binding assay; conditions: filed as antagonist, Compound concentration 10.0 uM
T1 sequence (whole entry): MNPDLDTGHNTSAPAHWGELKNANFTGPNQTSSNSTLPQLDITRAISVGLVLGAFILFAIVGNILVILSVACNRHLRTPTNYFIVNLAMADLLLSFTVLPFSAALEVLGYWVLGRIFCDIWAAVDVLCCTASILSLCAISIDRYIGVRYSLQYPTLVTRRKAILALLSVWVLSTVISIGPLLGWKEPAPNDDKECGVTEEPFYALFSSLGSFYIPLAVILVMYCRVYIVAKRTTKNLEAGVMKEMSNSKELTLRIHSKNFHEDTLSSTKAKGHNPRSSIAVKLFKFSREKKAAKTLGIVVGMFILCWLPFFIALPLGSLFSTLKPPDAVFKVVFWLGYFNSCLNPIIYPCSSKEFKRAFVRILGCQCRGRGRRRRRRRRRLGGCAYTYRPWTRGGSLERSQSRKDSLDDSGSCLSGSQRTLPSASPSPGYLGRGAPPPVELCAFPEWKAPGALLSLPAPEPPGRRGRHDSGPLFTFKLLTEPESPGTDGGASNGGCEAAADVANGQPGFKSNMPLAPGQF

[2] = biological target: Type-1 angiotensin II receptor (Homo sapiens) (UniProt P30556); test: AT1 (h) Eurofins-Cerep binding assay; design: ligand concentration 0.05 nM; conditions: filed as antagonist, Compound concentration 10.0 uM
[3] = biological target: D(1A) dopamine receptor (Homo sapiens) (UniProt P21728); test: D1 (h) Eurofins-Cerep binding assay; design: ligand concentration 0.3 nM; conditions: filed as antagonist, Compound concentration 10.0 uM
[4] = biological target: T2, Muscarinic acetylcholine receptor M2 (Homo sapiens) (UniProt P08172); test: M2 (h) Eurofins-Cerep binding assay; design: ligand concentration 2 nM; conditions: filed as antagonist, Compound concentration 10.0 uM
T2 sequence (whole entry): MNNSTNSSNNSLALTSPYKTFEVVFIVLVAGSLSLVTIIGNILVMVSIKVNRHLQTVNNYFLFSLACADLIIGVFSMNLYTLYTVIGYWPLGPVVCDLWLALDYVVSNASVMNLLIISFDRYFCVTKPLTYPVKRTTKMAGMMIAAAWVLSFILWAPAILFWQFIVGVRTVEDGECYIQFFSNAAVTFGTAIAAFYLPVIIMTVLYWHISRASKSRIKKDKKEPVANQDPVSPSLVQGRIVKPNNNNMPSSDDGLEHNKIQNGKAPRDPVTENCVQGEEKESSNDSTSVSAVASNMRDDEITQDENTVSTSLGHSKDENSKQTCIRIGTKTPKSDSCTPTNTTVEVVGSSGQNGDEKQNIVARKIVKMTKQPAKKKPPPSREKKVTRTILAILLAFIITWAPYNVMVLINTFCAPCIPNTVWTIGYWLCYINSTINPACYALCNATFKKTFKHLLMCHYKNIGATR

[5] = biological target: T3, Muscarinic acetylcholine receptor M4 (Homo sapiens) (UniProt P08173); test: M4 (h) Eurofins-Cerep binding assay; design: ligand concentration 0.2 nM; conditions: filed as antagonist, Compound concentration 10.0 uM
T3 sequence (whole entry): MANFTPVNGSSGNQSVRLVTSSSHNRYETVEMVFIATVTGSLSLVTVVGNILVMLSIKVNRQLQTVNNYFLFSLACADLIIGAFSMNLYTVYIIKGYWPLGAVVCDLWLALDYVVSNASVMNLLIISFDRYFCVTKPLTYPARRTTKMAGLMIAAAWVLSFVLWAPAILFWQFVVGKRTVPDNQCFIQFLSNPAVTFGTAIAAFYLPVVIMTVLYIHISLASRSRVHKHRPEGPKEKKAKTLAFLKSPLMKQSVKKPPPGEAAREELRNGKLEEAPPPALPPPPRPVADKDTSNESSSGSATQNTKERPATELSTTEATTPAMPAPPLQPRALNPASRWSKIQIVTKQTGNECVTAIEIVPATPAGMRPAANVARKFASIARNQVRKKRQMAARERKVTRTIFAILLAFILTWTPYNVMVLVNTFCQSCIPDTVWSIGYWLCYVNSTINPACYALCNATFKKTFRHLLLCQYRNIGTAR

[6] = biological target: Substance-K receptor (Homo sapiens) (UniProt P21452); test: NK2 (h) Eurofins-Cerep binding assay; design: ligand concentration 0.1 nM; conditions: filed as agonist, Compound concentration 10.0 uM
[7] = biological target: Delta-type opioid receptor (Homo sapiens) (UniProt P41143); test: delta (DOP) (h) Eurofins-Cerep binding assay; design: ligand concentration 0.5 nM; conditions: filed as agonist, Compound concentration 10.0 uM
[8] = biological target: Sigma non-opioid intracellular receptor 1 (Homo sapiens) (UniProt Q99720); test: sigma (non-selective) (h) Eurofins-Cerep binding assay; design: ligand concentration 10 nM; conditions: filed as agonist, Compound concentration 10.0 uM
[9] = system: Tyrosine-protein kinase ABL1 (Homo sapiens), P00519 [Q252H]; conditions: Compound concentration 1000.0 nM
[10] = biological target: Tyrosine-protein kinase ABL1 (Homo sapiens) (UniProt P00519); conditions: Compound concentration 1000.0 nM
[11] = biological target: Protein-tyrosine kinase 6 (Homo sapiens) (UniProt Q13882); conditions: Compound concentration 1000.0 nM
[12] = biological target: Cyclin-dependent kinase 4 (Homo sapiens) (UniProt P11802); conditions: Compound concentration 1000.0 nM
[13] = biological target: Ephrin type-A receptor 8 (Homo sapiens) (UniProt P29322); conditions: Compound concentration 1000.0 nM
[14] = biological target: Vascular endothelial growth factor receptor 1 (Homo sapiens) (UniProt P17948); conditions: Compound concentration 1000.0 nM
[15] = biological target: Homeodomain-interacting protein kinase 2 (Homo sapiens) (UniProt Q9H2X6); conditions: Compound concentration 1000.0 nM
[16] = biological target: Insulin receptor-related protein (Homo sapiens) (UniProt P14616); conditions: Compound concentration 1000.0 nM
[17] = biological target: Mitogen-activated protein kinase kinase kinase 15 (Homo sapiens) (UniProt Q6ZN16); conditions: Compound concentration 1000.0 nM
[18] = biological target: Serine/threonine-protein kinase 38-like (Homo sapiens) (UniProt Q9Y2H1); conditions: Compound concentration 1000.0 nM
[19] = biological target: Serine/threonine-protein kinase Nek4 (Homo sapiens) (UniProt P51957); conditions: Compound concentration 1000.0 nM
[20] = biological target: Serine/threonine-protein kinase Nek6 (Homo sapiens) (UniProt Q9HC98); conditions: Compound concentration 1000.0 nM
[21] = biological target: Cyclin-dependent kinase 14 (Homo sapiens) (UniProt O94921); conditions: Compound concentration 1000.0 nM
[22] = biological target: Serine/threonine-protein kinase PknB (Mycobacterium tuberculosis) (UniProt P9WI81); conditions: Compound concentration 1000.0 nM
[23] = biological target: Serine/threonine-protein kinase PRP4 homolog (Homo sapiens) (UniProt Q13523); conditions: Compound concentration 1000.0 nM
[24] = biological target: Uncharacterized serine/threonine-protein kinase SBK3 (Homo sapiens) (UniProt P0C264); conditions: Compound concentration 1000.0 nM
[25] = biological target: High affinity nerve growth factor receptor (Homo sapiens) (UniProt P04629); conditions: Compound concentration 1000.0 nM
[26] = biological target: Wee1-like protein kinase (Homo sapiens) (UniProt P30291); conditions: Compound concentration 1000.0 nM

Chain of Serine/threonine-protein kinase PRP4 homolog (Homo sapiens) (Q13523 whole entry): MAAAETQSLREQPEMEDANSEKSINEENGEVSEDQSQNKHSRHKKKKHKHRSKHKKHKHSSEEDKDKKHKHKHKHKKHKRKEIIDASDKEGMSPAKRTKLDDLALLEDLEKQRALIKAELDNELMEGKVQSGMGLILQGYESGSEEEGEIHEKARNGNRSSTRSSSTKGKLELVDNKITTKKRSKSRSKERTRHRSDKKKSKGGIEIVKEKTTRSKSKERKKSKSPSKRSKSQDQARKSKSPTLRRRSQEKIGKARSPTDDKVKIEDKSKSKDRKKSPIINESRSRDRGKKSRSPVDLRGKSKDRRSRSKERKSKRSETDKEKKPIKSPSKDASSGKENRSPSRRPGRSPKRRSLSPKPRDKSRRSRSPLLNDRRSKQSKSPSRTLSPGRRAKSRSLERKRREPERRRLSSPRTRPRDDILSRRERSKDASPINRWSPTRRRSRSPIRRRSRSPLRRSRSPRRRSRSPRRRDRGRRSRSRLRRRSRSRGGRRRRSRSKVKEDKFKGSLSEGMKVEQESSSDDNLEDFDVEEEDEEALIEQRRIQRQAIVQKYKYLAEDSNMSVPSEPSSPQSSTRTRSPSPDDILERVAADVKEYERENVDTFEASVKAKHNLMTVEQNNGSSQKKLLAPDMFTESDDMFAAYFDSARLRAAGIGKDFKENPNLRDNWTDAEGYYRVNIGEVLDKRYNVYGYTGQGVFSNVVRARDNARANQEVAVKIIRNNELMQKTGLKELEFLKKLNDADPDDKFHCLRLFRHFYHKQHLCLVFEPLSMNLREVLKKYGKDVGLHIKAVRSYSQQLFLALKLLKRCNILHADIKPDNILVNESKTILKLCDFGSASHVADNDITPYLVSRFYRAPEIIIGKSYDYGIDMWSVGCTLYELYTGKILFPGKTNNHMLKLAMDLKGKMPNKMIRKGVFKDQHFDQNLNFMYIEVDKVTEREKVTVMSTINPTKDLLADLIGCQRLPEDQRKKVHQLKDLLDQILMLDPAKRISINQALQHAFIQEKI
Chain of Delta-type opioid receptor (Homo sapiens) (P41143 whole entry): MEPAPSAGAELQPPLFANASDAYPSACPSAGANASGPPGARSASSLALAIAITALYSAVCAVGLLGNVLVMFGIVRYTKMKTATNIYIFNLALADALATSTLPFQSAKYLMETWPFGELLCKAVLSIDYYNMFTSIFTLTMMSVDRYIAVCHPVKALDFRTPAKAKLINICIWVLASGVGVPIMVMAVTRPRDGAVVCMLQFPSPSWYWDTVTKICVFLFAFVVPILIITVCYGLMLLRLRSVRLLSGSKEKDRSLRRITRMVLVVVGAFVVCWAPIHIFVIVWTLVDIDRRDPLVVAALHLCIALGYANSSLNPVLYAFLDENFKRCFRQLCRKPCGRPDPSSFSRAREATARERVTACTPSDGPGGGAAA
Chain of D(1A) dopamine receptor (Homo sapiens) (P21728 whole entry): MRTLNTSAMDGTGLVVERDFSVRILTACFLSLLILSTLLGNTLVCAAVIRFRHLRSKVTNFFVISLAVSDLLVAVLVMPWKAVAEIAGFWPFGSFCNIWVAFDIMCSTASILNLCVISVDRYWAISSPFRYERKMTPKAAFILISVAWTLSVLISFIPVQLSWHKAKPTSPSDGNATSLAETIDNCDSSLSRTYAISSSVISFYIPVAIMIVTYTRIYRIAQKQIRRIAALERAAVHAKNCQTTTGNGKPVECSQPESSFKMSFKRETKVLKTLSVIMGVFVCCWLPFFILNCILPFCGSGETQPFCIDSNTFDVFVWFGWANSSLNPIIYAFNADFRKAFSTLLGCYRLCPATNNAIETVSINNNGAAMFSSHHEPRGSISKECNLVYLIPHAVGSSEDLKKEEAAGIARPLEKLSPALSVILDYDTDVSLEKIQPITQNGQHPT
Chain of Sigma non-opioid intracellular receptor 1 (Homo sapiens) (Q99720 whole entry): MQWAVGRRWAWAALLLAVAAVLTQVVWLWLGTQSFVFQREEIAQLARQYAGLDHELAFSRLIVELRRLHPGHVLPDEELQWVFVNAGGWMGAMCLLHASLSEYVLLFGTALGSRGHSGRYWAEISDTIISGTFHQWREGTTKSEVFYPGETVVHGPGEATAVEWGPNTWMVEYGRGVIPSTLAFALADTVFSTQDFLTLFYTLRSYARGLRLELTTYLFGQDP
Chain of Serine/threonine-protein kinase PknB (Mycobacterium tuberculosis) (P9WI81 whole entry): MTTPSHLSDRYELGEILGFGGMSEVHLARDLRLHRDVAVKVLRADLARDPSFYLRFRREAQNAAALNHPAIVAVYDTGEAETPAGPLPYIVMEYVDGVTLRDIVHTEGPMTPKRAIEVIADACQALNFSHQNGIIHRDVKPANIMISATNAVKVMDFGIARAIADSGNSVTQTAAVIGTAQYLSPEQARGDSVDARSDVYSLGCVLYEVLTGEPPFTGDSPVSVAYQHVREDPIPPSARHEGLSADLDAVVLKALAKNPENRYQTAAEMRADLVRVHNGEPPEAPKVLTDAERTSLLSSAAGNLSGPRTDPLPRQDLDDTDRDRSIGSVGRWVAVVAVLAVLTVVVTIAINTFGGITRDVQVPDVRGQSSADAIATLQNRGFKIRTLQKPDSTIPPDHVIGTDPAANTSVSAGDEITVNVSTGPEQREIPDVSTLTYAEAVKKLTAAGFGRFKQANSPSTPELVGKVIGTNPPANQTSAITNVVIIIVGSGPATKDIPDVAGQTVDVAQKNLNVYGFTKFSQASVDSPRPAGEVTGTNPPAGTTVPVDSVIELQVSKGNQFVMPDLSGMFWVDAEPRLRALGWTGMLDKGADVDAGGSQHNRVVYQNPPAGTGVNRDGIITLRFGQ
Chain of Vascular endothelial growth factor receptor 1 (Homo sapiens) (P17948 whole entry): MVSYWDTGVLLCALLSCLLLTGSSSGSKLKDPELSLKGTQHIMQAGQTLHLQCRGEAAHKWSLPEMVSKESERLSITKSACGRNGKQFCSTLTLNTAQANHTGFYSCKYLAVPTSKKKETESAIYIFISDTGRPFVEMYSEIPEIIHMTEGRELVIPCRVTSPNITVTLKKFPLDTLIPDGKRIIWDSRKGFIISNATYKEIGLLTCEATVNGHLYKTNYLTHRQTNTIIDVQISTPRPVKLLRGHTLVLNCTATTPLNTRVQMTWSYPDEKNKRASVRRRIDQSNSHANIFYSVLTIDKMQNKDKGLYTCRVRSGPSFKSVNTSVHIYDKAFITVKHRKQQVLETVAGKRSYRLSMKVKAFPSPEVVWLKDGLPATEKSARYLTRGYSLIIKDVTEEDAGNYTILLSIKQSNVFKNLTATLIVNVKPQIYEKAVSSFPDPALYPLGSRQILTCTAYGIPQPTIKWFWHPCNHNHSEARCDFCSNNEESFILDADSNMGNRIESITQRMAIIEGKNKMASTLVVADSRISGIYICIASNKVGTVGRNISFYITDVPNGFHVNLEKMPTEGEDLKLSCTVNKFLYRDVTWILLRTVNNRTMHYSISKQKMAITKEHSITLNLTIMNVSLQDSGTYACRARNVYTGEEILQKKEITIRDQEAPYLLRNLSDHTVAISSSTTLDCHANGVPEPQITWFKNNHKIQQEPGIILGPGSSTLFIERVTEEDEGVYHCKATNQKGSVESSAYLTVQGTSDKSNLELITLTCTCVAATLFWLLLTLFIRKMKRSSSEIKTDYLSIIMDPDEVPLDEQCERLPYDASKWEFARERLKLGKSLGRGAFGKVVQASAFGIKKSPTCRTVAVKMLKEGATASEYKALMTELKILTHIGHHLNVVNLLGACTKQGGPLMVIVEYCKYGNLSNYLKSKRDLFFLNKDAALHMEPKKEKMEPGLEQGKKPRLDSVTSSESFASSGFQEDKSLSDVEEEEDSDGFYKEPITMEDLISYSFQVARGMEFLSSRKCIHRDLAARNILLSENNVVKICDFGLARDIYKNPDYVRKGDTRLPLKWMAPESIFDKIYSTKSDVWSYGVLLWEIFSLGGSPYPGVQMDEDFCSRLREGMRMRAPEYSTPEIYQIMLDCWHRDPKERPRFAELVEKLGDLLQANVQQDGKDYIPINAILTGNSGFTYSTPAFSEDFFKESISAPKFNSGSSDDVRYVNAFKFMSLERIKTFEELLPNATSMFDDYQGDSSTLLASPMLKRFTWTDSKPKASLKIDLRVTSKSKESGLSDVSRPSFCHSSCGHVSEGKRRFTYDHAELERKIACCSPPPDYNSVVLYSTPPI
Chain of Substance-K receptor (Homo sapiens) (P21452 whole entry): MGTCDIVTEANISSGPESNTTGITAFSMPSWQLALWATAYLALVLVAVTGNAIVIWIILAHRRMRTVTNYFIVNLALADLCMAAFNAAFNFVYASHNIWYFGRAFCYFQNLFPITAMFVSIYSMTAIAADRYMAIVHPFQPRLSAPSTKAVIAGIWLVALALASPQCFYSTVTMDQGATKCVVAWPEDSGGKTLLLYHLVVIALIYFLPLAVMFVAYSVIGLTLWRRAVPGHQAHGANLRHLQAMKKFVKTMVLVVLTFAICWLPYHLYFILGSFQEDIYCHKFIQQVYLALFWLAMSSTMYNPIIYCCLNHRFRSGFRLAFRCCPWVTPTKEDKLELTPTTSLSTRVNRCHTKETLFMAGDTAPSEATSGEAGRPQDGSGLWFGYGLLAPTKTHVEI
Chain of Protein-tyrosine kinase 6 (Homo sapiens) (Q13882 whole entry, looked up): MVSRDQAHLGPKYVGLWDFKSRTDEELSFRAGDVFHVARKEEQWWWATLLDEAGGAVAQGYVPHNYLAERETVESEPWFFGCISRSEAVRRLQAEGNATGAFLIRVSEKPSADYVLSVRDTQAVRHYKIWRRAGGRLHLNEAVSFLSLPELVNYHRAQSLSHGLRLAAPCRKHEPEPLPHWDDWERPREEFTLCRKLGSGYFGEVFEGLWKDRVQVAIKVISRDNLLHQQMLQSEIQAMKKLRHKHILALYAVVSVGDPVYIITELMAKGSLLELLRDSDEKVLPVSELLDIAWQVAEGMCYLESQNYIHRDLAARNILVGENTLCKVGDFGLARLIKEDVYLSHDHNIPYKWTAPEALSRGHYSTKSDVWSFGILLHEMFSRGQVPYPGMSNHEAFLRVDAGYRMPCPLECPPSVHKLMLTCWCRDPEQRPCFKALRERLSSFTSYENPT

Row | SMILES | % Inhibition of Control Specific Binding (Mean n=2) [1] | % Inhibition of Control Specific Binding (Mean n=2) [2] | % Inhibition of Control Specific Binding (Mean n=2) [3] | % Inhibition of Control Specific Binding (Mean n=2) [4] | % Inhibition of Control Specific Binding (Mean n=2) [5] | % Inhibition of Control Specific Binding (Mean n=2) [6] | % Inhibition of Control Specific Binding (Mean n=2) [7] | % Inhibition of Control Specific Binding (Mean n=2) [8] | residual activity [9] | residual activity [10] | residual activity [11] | residual activity [12] | residual activity [13] | residual activity [14] | residual activity [15] | residual activity [16] | residual activity [17] | residual activity [18] | residual activity [19] | residual activity [20] | further results
1 | CCCOc1ccc([C@H]2[C@H](C(=O)O)[C@@H](c3ccc4c(c3)OCO4)CN2CC(=O)Nc2c(CC)cccc2CC)cc1 [A-192621] | 3.2% | 1.5% | -2.2% | -8.8% | -2% | 18.3% | 33.5% | 39.3% | 86% | 70% | 84% | 100% | 98% | 97% | 66% | 94% | 73% | 88% | 71% | 96% | residual activity [21]: 100%; residual activity [22]: 78%; residual activity [23]: 82%; residual activity [24]: 94%; residual activity [25]: 84%; residual activity [26]: 93%
2 | CCCOc1ccc([C@@H]2[C@@H](C(=O)O)[C@H](c3ccc4c(c3)OCO4)CN2CC(=O)Nc2c(CC)cccc2CC)cc1 [A-1806262] | 3.1% | -3.8% | -0.2% | -7.1% | -1.8% | -3% | 23.5% | -9.7% | 99% | 88% | 83% | 100% | 97% | 94% | 80% | 100% | 99% | 100% | 72% | 92% | residual activity [21]: 92%; residual activity [22]: 98%; residual activity [23]: 100%; residual activity [24]: 85%; residual activity [25]: 97%; residual activity [26]: 95%
